From US8236527B2, “Recombinant production of authentic human proteins using human cell expression systems” (Humanzyme Limited, priority 2008, dated 2012)
Counter-ions that a name gives are not always drawn. Like-named read-outs stand apart in the source and are kept apart here.

Columns and labels:
[1] = biological target: p38α produced and activated in human cells (Homo sapiens, UniProt Q16539); test: Kinase inhibitor IC50 determination with p38α produced in human cells; assay type: biochemical; details: read-out: IC50, Human Cell
[2] = biological target: p38α expressed in E. coli, Vendor B, in vitro activated by MKK6 (Homo sapiens, UniProt Q16539); test: Kinase inhibitor IC50 determination with E. coli p38α (Vendor B, E coli-II); assay type: biochemical
[3] = biological target: p38α expressed in E. coli, Vendor A, in vitro activated by MKK6 (Homo sapiens, UniProt Q16539); test: Kinase inhibitor IC50 determination with E. coli p38α (Vendor A, E coli-I); assay type: biochemical
[4] = system: whole CD4+ cells from a healthy donor; test: Th17 polarizing cytokines: IL-17 secretion from human CD4+ cells (ELISA); assay type: cell-based; details: for induction of IL-17 secretion: compared with cytokines from insect cell or bacterial expression system, 5 days; for Th17 cell polarization: separate study, same condition
From the text: IL-17-producing CD4+ T cells (Th-17 cells) have been identified as a unique subset of Th cells that develop along a pathway that is distinct from the Th1, and Th2-cell differentiation pathways. This finding has provided exciting new insights into immunoregulation, host defense and the pathogenesis of autoimmune diseases. Recently it has been shown that IL1β, IL6 and IL23 are important in driving human Th17 differentiation. However, TGF-β1, which is important for the differentiation of murine Th17 cells, is reported to be not required, and even inhibits human Th17 differentiation (McGeachy & Cua (2008) Immunity 28:445, Chen & O'Shea (2008) Cytokines 41:71). In this study, whole […] cells isolated from a healthy donor were stimulated with 10 μg/mL plate bound anti-CD3 and 10 μg/ml soluble anti-CD28 in the presence of Th17 polarizing cytokines from the inventive human cell expression system and from an insect cell or bacterial expression system. After 5 days supernatants were harvested for measurement of IL-17 by ELISA.

[5] = system: human TF-1 cells; test: IL-4 bioactivity: dose-dependent stimulation of proliferation of TF-1 cells; assay type: cell-based; details: TF-1 cell proliferation
[6] = Km.ATP of p38α preparations; assay type: biochemical
[7] = system: naïve T cell (Th0); test: Differentiation of naive T cell (Th0) to Th17 cells, flow cytometry; assay type: cell-based; details: compared with human platelet derived native TGF-β1 (positive control)
Procedure: (§1) FIG. 22: Efficient differentiation of Th17 cells with authentic cytokines expressed in human cells. Whole CD4+ T cells isolated from a healthy donor were stimulated with 2 μg/mL plate bound anti-CD3 and 1 μg/mL soluble anti-CD28 in the presence of Th17 polarizing cytokines, including a titration of IL-23. After 5 days, supernatants were harvested for measurement of IL-17 by ELISA. See (A)-(G). FIG. 22 (H) depicts flow cytometry analysis on Human Th17 Differentiation by Authentic human TGF-β1. See Example 17 below.

[8] = system: human umbilical vein endothelial cells; test: VEGF165 bioactivity: proliferation of human umbilical vein endothelial cells; assay type: cell-based; details: HUVEC proliferation
[9] = system: human CD4+ T cells; test: IL-23 activity: IL-17 secretion from human CD4+ T cells (ELISA); assay type: cell-based; details: human CD4+ cells, 5 days
Procedure: (A) IL-23 activities determined by the dose-dependent secretion of IL-17 from mouse splenocytes activated with 10 ng/ml PMA. (B) IL-23 activities determined by the dose-dependent secretion of IL-17 from human CD4+ T cells stimulated with […] plate bound anti-CD3 and […] soluble anti-CD28 in the presence of Th17 polarizing cytokines.
as §1
IL-17-producing CD4+ T cells (Th17 cells) have been identified as a unique subset of T helper cells that develop along a pathway that is distinct from the Th1 and Th2-cell differentiation pathways. This finding has provided exciting new insights into immunoregulation, host defense and the pathogenesis of autoimmune diseases. Recently it has been shown that TGF-β1, […], IL-6 and IL-23 are important in driving human Th17 differentiation (Chen & O'Shea (2008) Cytokines 41:71). […] The activities were further assayed with human CD4+ cells which were isolated from a healthy donor and stimulated with 10 μg/ml plate bound anti-CD3 and 10 μg/ml soluble anti-CD28 in the presence of Th17 polarizing cytokines. After 5 days supernatants were harvested for measurement of IL-17 by ELISA.

[10] = system: human embryonic stem (hES) cells; test: Oct3/4 expression in Noggin-treated human embryonic stem cells (Western blot); assay type: cell-based; details: 10 pg/ml and 20 pg/ml treatment
[11] = p38α from E. coli, Vendor B, read-out: IC50, E coli-II
[12] = p38α from E. coli, Vendor A, read-out: IC50, E coli-I

Sequence of p38α expressed in E. coli, Vendor A, in vitro activated by MKK6 (Q16539 whole entry): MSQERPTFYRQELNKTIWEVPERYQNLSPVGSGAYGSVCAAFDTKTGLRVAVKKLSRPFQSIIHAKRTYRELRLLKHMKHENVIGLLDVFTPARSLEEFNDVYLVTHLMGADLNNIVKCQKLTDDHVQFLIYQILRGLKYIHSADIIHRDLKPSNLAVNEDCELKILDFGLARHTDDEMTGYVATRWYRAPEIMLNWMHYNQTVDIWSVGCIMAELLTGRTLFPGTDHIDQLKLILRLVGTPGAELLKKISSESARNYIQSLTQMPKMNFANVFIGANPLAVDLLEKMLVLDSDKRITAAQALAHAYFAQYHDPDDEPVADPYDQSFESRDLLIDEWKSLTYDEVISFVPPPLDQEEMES
Sequence of p38α produced and activated in human cells (Q16539 whole entry): as above
Sequence of p38α expressed in E. coli, Vendor B, in vitro activated by MKK6 (Q16539 whole entry): as above

In the case of `Nc1ncnc2c1c(I)cn2[C@@H]1O[C@H](CO)[C@@H](O)[C@H]1O` [5-iodotubercidin], the IC50 [1] is reported as > 10 µM, the IC50 ([2]; read-out: IC50, E coli-II) is reported as > 10 µM and the IC50 ([3]; read-out: IC50, E coli-I) is reported as > 10 µM.

With `Nc1ncnc2c1ncn2[C@@H]1O[C@H](COP(=O)(O)OP(=O)(O)NP(=O)(O)O)[C@@H](O)[C@H]1O` [AMP-PNP] the IC50 ([1]; p38α produced in human cells) was 257 µM, the IC50 [2, 11] was > 2000 µM and the “fold less sensitive than human cell p38α” value ([3]; Vendor A preparation vs p38α from human cells) was 7 fold. The IC50 [3, 12] was 1810 µM.

In the case of `CN(C)CCCn1cc(C2=C(c3c[nH]c4ccccc34)C(=O)NC2=O)c2ccccc21` [GF 109203X], the IC50 [1] is reported as > 10 µM, the IC50 [2, 11] is reported as > 10 µM and the IC50 [3, 12] is reported as > 10 µM.

For `O=S(=O)(NCCNC/C=C/c1ccc(Br)cc1)c1cccc2cnccc12` [H89 Dihydrochloride], the IC50 ([1]; p38α produced in human cells) was > 10 µM, the IC50 [2, 11] was > 10 µM and the IC50 [3, 12] was > 10 µM.

With `NCCNS(=O)(=O)c1cccc2cnccc12` [H-9 dihydrochloride] the IC50 ([1]; p38α produced in human cells) was > 10 µM, the IC50 [2, 11] was > 10 µM and the IC50 [3, 12] was > 10 µM.

In the case of `COC(=O)[C@@]1(O)C[C@H]2O[C@]1(C)n1c3ccccc3c3c4c(c5c6ccccc6n2c5c31)C(=O)NC4` [K252a], the IC50 [1] is reported as 0.005 µM, the IC50 [2] is reported as > 10 µM and the IC50 [3] is reported as > 10 µM.

With `CCCCCCOC(=O)[C@]1(O)C[C@@H]2O[C@@]1(C)n1c3ccccc3c3c4c(c5c6ccccc6n2c5c31)C(=O)NC4` [KT5720] the IC50 ([1]; p38α produced in human cells) was 5 µM, the IC50 [2, 11] was > 10 µM and the IC50 [3, 12] was > 10 µM.

In the case of `Cn1cc(C2=C(c3cn(CCCSC(=N)N)c4ccccc34)C(=O)NC2=O)c2ccccc21` [Ro 31-8220], the IC50 ([1]; p38α produced in human cells) is reported as 9.9 µM, the IC50 [2, 11] is reported as > 10 µM and the IC50 [3, 12] is reported as > 10 µM.

With `CN(C)C[C@H]1CCn2c(c(C3=C(c4cn(C)c5ccccc45)C(=O)NC3=O)c3ccccc32)C1` [Ro 32-0432] the IC50 ([1]; p38α produced in human cells) was > 10 µM, the IC50 [2, 11] was > 10 µM and the IC50 [3, 12] was > 10 µM.

For `CC(=O)c1c(O)c(C)c(O)c(Cc2c(O)c3c(c(C(=O)/C=C/c4ccccc4)c2O)OC(C)(C)C=C3)c1O` [Rottlerin], the IC50 [1] was >200 µM, the IC50 [2] was > 200 µM and the IC50 [3] was > 200 µM.

With “IL1β: recombinantly-produced, authentic human IL1β from the human cell expression system” the “induction of IL-17 secretion” value [4] was “significantly more effective”.

With “IL4: IL4 from human cells, glycosylated major band of 19 kD; SEQ ID NO: 22” the “fold higher potency than the E. coli expressed cytokine” value [5] was 4 fold.

In the case of “IL6: recombinantly-produced, authentic human IL6; SEQ ID NO: 16”, the “induction of IL-17 secretion” value [4] is reported as “significantly more effective”.

With “TGF-β1 from insect cells: TGF-β1 cytokine from insect cells used as comparator” the “induction of IL-17 secretion” value [4] was “marginal effect”.

Molecule “Vendor B enzyme: p38α from Vendor B, expressed and purified from E. coli, in vitro activated by MKK6” has a Km [6] of 120 µM.

For “Vendor preparation: p38α from Vendor A, expressed and purified from E. coli, in vitro activated by MKK6”, the Km [6] was 212 ± 26 µM.

For “authentic human TGF-β1: TGF-β1 from engineered human 293 cells, disulfide-linked dimer of 25 kD”, the “induction of IL-17 secretion” value [4] was “effective in enhancing the effect”, the Th17 cell polarization [4] was “can effectively induce Th17 cell polarization” and the “differentiation of Th0 to Th17 cells (IL-17 and INF-γ producing cells)” value [7] was “matched human platelet derived native TGF-β1”.

“authentic p38α: recombinantly-produced, authentic human p38a produced and activated in human cells in the presence of arsenite” showed a Km [6] of 109 ± 12 µM.

B1: authentic human VEGF165: VEGF165 from engineered human 293 cells, glycosylated homodimer of 45 kD; SEQ ID NO: 2 (protein)
chain: APMAEGGGQNHHEVVKFMDVYQRSYCHPIETLVDIFQEYPDEIEYIFKPSCVPLMRCGGCCNDEGLECVPTEESNITMQIMRIKPHQGQHIGEMSFLQHNKCECRPKKDRARQENPCGPCSERRKHLFVQDPQTCKCSCKNTDSRCKARQLELNERTCRCDKPRR
modifications: glycosylated homodimer
With B1 the “fold more active than the E. coli expressed protein” value [8] was 10 fold and the “fold more active than the E. coli expressed protein” value ([8]; listed as VEGF165) was 6 fold.

B2: TGF-β2: TGF-β2 from engineered human 293 cells, disulfide-linked dimer of 25 kD (protein, UniProt P61812 303-414, looked up)
Transforming growth factor …: ALDAAYCFRNVQDNCCLRPLYIDFKRDLGWKWIHEPKGYNANFCAGACPYLWSSDTQHSRVLSLYNTINPEASASPCCVSQDLEPLTILYYIGKTPKIEQLSNMIVKSCKCS
With B2 the Th17 cell polarization [4] was “can effectively induce Th17 cell polarization”.

B3: TGF-β3: TGF-β3 from engineered human 293 cells, disulfide-linked dimer of 25 kD (protein, UniProt P10600 301-412, looked up)
Transforming growth factor …: ALDTNYCFRNLEENCCVRPLYIDFRQDLGWKWVHEPKGYYANFCSGPCPYLRSADTTHSTVLGLYNTLNPEASASPCCVPQDLEPLTILYYVGRTPKVEQLSNMVVKSCKCS
In the case of B3, the Th17 cell polarization [4] is reported as “can effectively induce Th17 cell polarization”.

B4: insect cell-produced IL-23: commercially available recombinant IL-23 from an insect cell expression system (protein, UniProt Q9NPF7 20-189; P29460 23-328, looked up)
Interleukin-23 subunit alpha: RAVPGGSSPAWTQCQQLSQKLCTLAWSAHPLVGHMDLREEGDEETTNDVPHIQCGDGCDPQGLRDNSQFCLQRIHQGLIFYEKLLGSDIFTGEPSLLPDSPVGQLHASLLGLSQLLQPEGHHWETQQIPSLSPSQPWQRLLLRFKILRSLQAFVAVAARVFAHGAATLSP
Interleukin-12 subunit beta: IWELKKDVYVVELDWYPDAPGEMVVLTCDTPEEDGITWTLDQSSEVLGSGKTLTIQVKEFGDAGQYTCHKGGEVLSHSLLLLHKKEDGIWSTDILKDQKEPKNKTFLRCEAKNYSGRFTCWWLTTISTDLTFSVKSSRGSSDPQGVTCGAATLSAERVRGDNKEYEYSVECQEDSACPAAEESLPIEVMVDAVHKLKYENYTSSFFIRDIIKPDPPKNLQLKPLKNSRQVEVSWEYPDTWSTPHSYFSLTFCVQVQGKSKREKKDRVFTDKTSATVICRKNASISVRAQDRYYSSSWSEWASVPCS
For B4, the “concentration at which maximum induction of IL-17 secretion was achieved” value [9] was 10 ng/mL.

B5: authentic human Noggin: Noggin from human 293 cell expression system, glycosylated, disulfide-linked dimer; SEQ ID NO: 24 (protein)
chain: QHYLHIRPAPSDNLPLVDLIEHPDPIFDPKEKDLNETLLRSLLGGHYDPGFMATSPPEDRPGGGGGAAGGAEDLAELDQLLRQRPSGAMPSEIKGLEFSEGLAQGKKQRLSKKLRRKLQMWLWSQTFCPVLYAWNDLGSRFWPRYVKVGSCFSKRSCSVPEGMVCKPSKSVHLTVLRWRCQRRGGQRCGWIPIQYPIISECKCSC
modifications: glycosylated disulfide-linked homodimer
For B5, the “Oct3/4 expression (marker for undifferentiated hES cells)” value [10] was “consistently expressed Oct3/4” and the “Oct3/4 expression (marker for undifferentiated hES cells)” value ([10]; listed as authentic human homodimer Noggin) was “expresses so effectively and consistently Oct3/4”.
